The subject of the test is CD2F1 mice, P1798 lymphosarcoma sc, tumor weight T/C. The test is described as follows: NCI In Vivo Anticancer Drug Screen. Data for tumor model P1798 Lymphosarcoma (subcutaneous) in CD2F1 (CDF1) mice. The note with it: endpoint: mean tumor weight, higher = larger tumour. On the procedure:
The antitumor activity of compounds was measured in mice bearing transplantable tumors. Survival or tumor size were measured and the results are expressed as the measurement made in the treated group (T) divided by the measurement made in the vehicle treated control group (C). The tumor model used in this assay is P1798 Lymphosarcoma (subcutaneous) in CD2F1 (CDF1) mice

[1] abbreviates: dose: 0.63 mg/kg/injection, schedule: Q01DX010 (ip), vehicle: saline.
[2] abbreviates: dose: 1.25 mg/kg/injection, schedule: Q01DX010 (ip), vehicle: saline.
Setting [3] is: dose: 2.5 mg/kg/injection, schedule: Q01DX010 (ip), vehicle: saline.
[4] abbreviates: dose: 16.0 mg/kg/injection, schedule: Q01DX010 (ip), vehicle: saline.
Setting [5] is: dose: 32.0 mg/kg/injection, schedule: Q01DX010 (ip), vehicle: saline.
The mark [6] stands for this setting: dose: 64.0 mg/kg/injection, schedule: Q01DX010 (ip), vehicle: saline.
[7] abbreviates: dose: 3.13 mg/kg/injection, schedule: Q01DX010 (ip), vehicle: saline.
[8] abbreviates: dose: 6.25 mg/kg/injection, schedule: Q01DX010 (ip), vehicle: saline.
[9] abbreviates: dose: 12.5 mg/kg/injection, schedule: Q01DX010 (ip), vehicle: saline.
Where [10] appears, read: dose: 25.0 mg/kg/injection, schedule: Q01DX010 (ip), vehicle: saline.
Where [11] appears, read: dose: 25.0 mg/kg/injection, schedule: Q01DX010 (sc), vehicle: steriod suspending solution.
Setting [12] is: dose: 50.0 mg/kg/injection, schedule: Q01DX010 (ip), vehicle: saline.
Setting [13] is: dose: 100.0 mg/kg/injection, schedule: Q01DX010 (ip), vehicle: saline.
Setting [14] is: dose: 200.0 mg/kg/injection, schedule: Q01DX010 (ip), vehicle: saline.
Setting [15] is: dose: 400.0 mg/kg/injection, schedule: Q01DX010 (ip), vehicle: saline.
[16] abbreviates: dose: 50.0 mg/kg/injection, schedule: Q01DX010 (sc), vehicle: steriod suspending solution.
The mark [17] stands for this setting: dose: 100.0 mg/kg/injection, schedule: Q01DX010 (sc), vehicle: steriod suspending solution.

The structures appear in SMILES notation. Several values for one entry are separate records, joined by “and”; a condition that tells them apart may be missing. Equal entries are not always repeated.

The T/C is the result in the treated group divided by that in the control group, in per cent. On to `CN[C@H]1CCc2cc(OC)c(OC)c(OC)c2-c2ccc(OC)c(=O)cc21`, for which the T/C was 108 % of control (dose: 0.63 mg/kg/injection, schedule: Q01DX010 (ip), vehicle: other); 59 % of control under setting [1]; 116 % of control (dose: 1.25 mg/kg/injection, schedule: Q01DX010 (ip), vehicle: other); 82 % of control under setting [2]; 112 % of control (dose: 2.5 mg/kg/injection, schedule: Q01DX010 (ip), vehicle: other); 57 % of control under setting [3]. The T/C runs as follows: (dose: 5.0 mg/kg/injection, schedule: Q01DX010 (ip), vehicle: other) 96 % of control; (dose: 5.0 mg/kg/injection, schedule: Q01DX010 (ip), vehicle: saline) 32 % of control.
For `Nc1nc(N)c2nc(CNc3ccc(C(=O)NC(CCC(=O)O)C(=O)O)cc3)cnc2n1` (stereo not drawn), the T/C (dose: 50.0 micrograms/kg/injection, schedule: Q01DX010 (ip), vehicle: other) is 110 % of control; the T/C (dose: 100.0 micrograms/kg/injection, schedule: Q01DX010 (ip), vehicle: other) was 100 % of control; the T/C (dose: 200.0 micrograms/kg/injection, schedule: Q01DX010 (ip), vehicle: other) is 79 % of control.
Take `CN1CC[C@]23c4c5ccc(O)c4O[C@H]2C(=O)CC[C@H]3[C@H]1C5`: the T/C runs as follows: (dose: 8.0 mg/kg/injection, schedule: Q01DX010 (ip), vehicle: saline) 94 % of control and 80 % of control; under setting [4], 76 % of control and 79 % of control; under setting [5], 74 % of control and 85 % of control; under setting [6], 93 % of control and 70 % of control.
Turning to `O=C(C(=O)N1CC1)c1c[nH]c2ccccc12`, the T/C was 90 % of control under setting [7]; 105 % of control under setting [8]; 92 % of control and 99 % of control under setting [9]; 108 % of control under setting [10].
With `C#C[C@]1(O)CC[C@H]2[C@@H]3CCc4cc(O)ccc4[C@H]3CC[C@@]21C`, the T/C under setting [11] is 71 % of control and 85 % of control.
Take `O=C(O)C(=O)O.[U]`: the T/C was 64 % of control (dose: 1.56 mg/kg/injection, schedule: Q01DX010 (ip), vehicle: saline); 45 % of control under setting [7]; 28 % of control under setting [8]; 30 % of control under setting [9].
Turning to `Nc1ncnc2c1ccn2C1OC(CO)C(O)C1O` (stereo not drawn), the T/C by setting is: (dose: 0.32 mg/kg/injection, schedule: Q01DX010 (ip), vehicle: saline) 97 % of control; under setting [1], 101 % of control; under setting [2], 84 % of control.
With `COC1=C(N)C(=O)c2nc(-c3nc(C(=O)O)c(C)c(-c4ccc(OC)c(OC)c4O)c3N)ccc2C1=O`, the T/C runs as follows: (dose: 0.06 mg/kg/injection, schedule: Q01DX010 (ip), vehicle: other) 45 % of control; (dose: 0.09 mg/kg/injection, schedule: Q01DX010 (ip), vehicle: other) 48 % of control; (dose: 0.13 mg/kg/injection, schedule: Q01DX010 (ip), vehicle: other) 43 % of control; (dose: 0.2 mg/kg/injection, schedule: Q01DX010 (ip), vehicle: saline) 28 % of control.
Regarding `CC(=O)OC(C)(C)/C=C/C(=O)[C@](C)(O)[C@H]1[C@H](O)C[C@@]2(C)[C@@H]3CC=C4[C@@H](C=C(O)C(=O)C4(C)C)[C@]3(C)C(=O)C[C@]12C`, the T/C is, setting by setting: (dose: 0.15 mg/kg/injection, schedule: Q01DX009 (ip), vehicle: saline with Tween-80) 100 % of control; (dose: 0.3 mg/kg/injection, schedule: Q01DX009 (ip), vehicle: saline with Tween-80) 84 % of control; (dose: 0.4 mg/kg/injection, schedule: Q01DX011 (ip), vehicle: carboxymethylcellulose (CMC)) 84 % of control; (dose: 0.6 mg/kg/injection, schedule: Q01DX009 (ip), vehicle: saline with Tween-80) 92 % of control; (dose: 0.8 mg/kg/injection, schedule: Q01DX011 (ip), vehicle: carboxymethylcellulose (CMC)) 95 % of control; (dose: 1.6 mg/kg/injection, schedule: Q01DX011 (ip), vehicle: carboxymethylcellulose (CMC)) 115 % of control. Further, the T/C (dose: 3.2 mg/kg/injection, schedule: Q01DX011 (ip), vehicle: carboxymethylcellulose (CMC)) was 47 % of control.
As to `Nc1c(N=Nc2ccc([N+](=O)[O-])cc2)c(S(=O)(=O)O)cc2cc(S(=O)(=O)O)c(N=Nc3ccc(Sc4ccc(N=Nc5ccc(O)cc5)cc4)cc3)c(O)c12` (tested in a mixture with another compound), the T/C under setting [12] is 119 % of control, the T/C under setting [13] is 76 % of control, the T/C under setting [14] is 31 % of control and the T/C under setting [15] is 20 % of control.
With `O=C(Nc1ccc(C2=NCCN2)cc1)c1ccc(C(=O)Nc2ccc(C3=NCCN3)cc2)cc1`, the T/C under setting [4] was 76 % of control; the T/C under setting [5] was 77 % of control; the T/C under setting [6] is 73 % of control; the T/C (dose: 128.0 mg/kg/injection, schedule: Q01DX010 (ip), vehicle: saline) was 47 % of control.
Turning to `COC1C(OC(=O)/C=C/C=C/C=C/C=C/C(=O)O)CCC2(CO2)C1C1(C)OC1CC=C(C)C` (stereo not drawn), the T/C is, setting by setting: under setting [10], 56 % of control; under setting [12], 46 % of control; under setting [13], 28 % of control.
For the molecule `CCOC(N)=O`, the T/C is 95 % of control (dose: 125.0 mg/kg/injection, schedule: Q01DX010 (ip), vehicle: saline); 64 % of control (dose: 250.0 mg/kg/injection, schedule: Q01DX010 (ip), vehicle: saline); 23 % of control (dose: 500.0 mg/kg/injection, schedule: Q01DX010 (ip), vehicle: saline).
Turning to `C[C@]12CC[C@H](O)C[C@@H]1CC[C@@H]1[C@@H]2C(=O)C[C@]2(C)C3=CC(=O)O[C@H]3C[C@@H]12`, the T/C is, setting by setting: (dose: 10.0 mg/kg/injection, schedule: Q01DX010 (sc), vehicle: steriod suspending solution) 76 % of control and 83 % of control; (dose: 20.0 mg/kg/injection, schedule: Q01DX010 (sc), vehicle: steriod suspending solution) 97 % of control; (dose: 40.0 mg/kg/injection, schedule: Q01DX010 (sc), vehicle: steriod suspending solution) 87 % of control and 90 % of control; (dose: 80.0 mg/kg/injection, schedule: Q01DX010 (sc), vehicle: steriod suspending solution) 78 % of control and 85 % of control.
Turning to `C[C@]12CCC(=O)C=C1CC[C@@H]1[C@@H]2CC[C@@]2(C)[C@H]1CC[C@]2(C)O`, the T/C is, setting by setting: (dose: 12.5 mg/kg/injection, schedule: Q01DX010 (sc), vehicle: steriod suspending solution) 91 % of control; under setting [11], 61 % of control; under setting [16], 90 % of control; under setting [17], 97 % of control.
Turning to `CC1CCC2C(C)C3C(CC4C5CC=C6CC(OC7OC(CO)C(O)C(OC8OC(CO)C(O)C(O)C8O)C7OC7OC(C)C(O)C(O)C7O)CCC6(C)C5CCC43C)N2C1` (stereo not drawn), the T/C runs as follows: under setting [11], 65 % of control; under setting [16], 44 % of control; under setting [17], 16 % of control; (dose: 200.0 mg/kg/injection, schedule: Q01DX010 (sc), vehicle: steriod suspending solution) 9 % of control and 26 % of control; (dose: 400.0 mg/kg/injection, schedule: Q01DX010 (sc), vehicle: steriod suspending solution) 30 % of control.
As to `Cc1nc(N2CC2)nc(N2CC2)c1[N+](=O)[O-]`, the T/C is 63 % of control and 82 % of control under setting [2]; 73 % of control and 84 % of control under setting [3].
`C1CN1c1nc(N2CC2)nc(N2CC2)n1`: the T/C (dose: 0.06 mg/kg/injection, schedule: Q01DX010 (ip), vehicle: saline) was 114 % of control; the T/C (dose: 0.5 mg/kg/injection, schedule: Q01DX010 (ip), vehicle: saline) is 29 % of control and 37 % of control.
In the case of `CC(=O)Nc1c(Cl)cc2c(c1Cl)Cc1cc([N+](=O)[O-])ccc1-2`, the T/C reads like this: (dose: 15.0 mg/kg/injection, schedule: Q01DX011 (ip), vehicle: carboxymethylcellulose (CMC)) 85 % of control; (dose: 65.0 mg/kg/injection, schedule: Q01DX011 (ip), vehicle: carboxymethylcellulose (CMC)) 108 % of control.
In the case of `CCOC(C)C(/C=N/NC(N)=S)=NNC(N)=S` (stereo not drawn), the T/C was 99 % of control (dose: 30.0 mg/kg/injection, schedule: Q01DX010 (ip), vehicle: saline); 100 % of control (dose: 60.0 mg/kg/injection, schedule: Q01DX010 (ip), vehicle: saline); 93 % of control (dose: 120.0 mg/kg/injection, schedule: Q01DX010 (ip), vehicle: saline).
`CN(C)/N=N/c1nc[nH]c1C(N)=O`: the T/C reads like this: under setting [12], 58 % of control; under setting [13], 47 % of control; under setting [14], 7 % of control; under setting [15], 3 % of control.
